Test results: ChEMBL document CHEMBL4414672, “Synthesis of certain benzothieno[3,2-d]pyrimidine derivatives as a selective SIRT2 inhibitors” (Eur J Med Chem, 2020)

Key:
Type in all cases: functional
SF-539 = test: Growth inhibition of human SF539 cells at 10^-5 M incubated for 48 hrs by sulforhodamine B assay; conditions: SF-539, 48 h, read-out: GI
HOP-92 = test: Growth inhibition of human HOP92 cells at 10^-5 M incubated for 48 hrs by sulforhodamine B assay; conditions: HOP-92, 48 h, read-out: GI
OVCAR-8 = test: Growth inhibition of human OVCAR8 cells at 10^-5 M incubated for 48 hrs by sulforhodamine B assay; conditions: OVCAR-8, 48 h, read-out: GI
SK-OV-3 = test: Growth inhibition of human SKOV3 cells at 10^-5 M incubated for 48 hrs by sulforhodamine B assay; conditions: SK-OV-3, 48 h, read-out: GI
SK-MEL-5 = test: Growth inhibition of human SK-MEL-5 cells at 10^-5 M incubated for 48 hrs by sulforhodamine B assay; conditions: SK-MEL-5, 48 h, read-out: GI
A549 = test: Growth inhibition of human A549/ATCC cells at 10^-5 M incubated for 48 hrs by sulforhodamine B assay; conditions: A549, 48 h, read-out: GI
CCRF-CEM = test: Growth inhibition of human CCRF-CEM cells at 10^-5 M incubated for 48 hrs by sulforhodamine B assay; conditions: read-out: GI
KM12 = test: Growth inhibition of human KM12 cells at 10^-5 M incubated for 48 hrs by sulforhodamine B assay; conditions: KM12, 48 h, read-out: GI
PC-3 = test: Growth inhibition of human PC3 cells at 10^-5 M incubated for 48 hrs by sulforhodamine B assay; conditions: PC-3, 48 h, read-out: GI
NCI/ADR-RES = test: Growth inhibition of human NCI/ADR-RES cells at 10^-5 M incubated for 48 hrs by sulforhodamine B assay; conditions: read-out: GI
TK-10 = test: Growth inhibition of human TK10 cells at 10^-5 M incubated for 48 hrs by sulforhodamine B assay; conditions: TK-10, 48 h, read-out: GI
K562 = test: Growth inhibition of human K562 cells at 10^-5 M incubated for 48 hrs by sulforhodamine B assay; conditions: K562, 48 h, read-out: GI
U-251 = test: Growth inhibition of human U251 cells at 10^-5 M incubated for 48 hrs by sulforhodamine B assay; conditions: U-251, 48 h, read-out: GI
NCI-H322M = test: Growth inhibition of human NCI-H322M cells at 10^-5 M incubated for 48 hrs by sulforhodamine B assay; conditions: read-out: GI
SF-295 = test: Growth inhibition of human SF295 cells at 10^-5 M incubated for 48 hrs by sulforhodamine B assay; conditions: SF-295, 48 h, read-out: GI
MDA-MB-435 = test: Growth inhibition of human MDA-MB-435 cells at 10^-5 M incubated for 48 hrs by sulforhodamine B assay; conditions: MDA-MB-435, 48 h, read-out: GI
Hs-578T = test: Growth inhibition of human Hs 578T cells at 10^-5 M incubated for 48 hrs by sulforhodamine B assay; conditions: read-out: GI
OVCAR-3 = test: Growth inhibition of human OVCAR3 cells at 10^-5 M incubated for 48 hrs by sulforhodamine B assay; conditions: OVCAR-3, 48 h, read-out: GI
IGROV-1 = test: Growth inhibition of human IGROV1 cells at 10^-5 M incubated for 48 hrs by sulforhodamine B assay; conditions: IGROV-1, 48 h, read-out: GI
A498 = test: Growth inhibition of human A498 cells at 10^-5 M incubated for 48 hrs by sulforhodamine B assay; conditions: A498, 48 h, read-out: GI
SW-620 = test: Growth inhibition of human SW620 cells at 10^-5 M incubated for 48 hrs by sulforhodamine B assay; conditions: SW-620, 48 h, read-out: GI
T47D = test: Growth inhibition of human T47D cells at 10^-5 M incubated for 48 hrs by sulforhodamine B assay; conditions: read-out: GI
SNB-19 = test: Growth inhibition of human SNB19 cells at 10^-5 M incubated for 48 hrs by sulforhodamine B assay; conditions: SNB-19, 48 h, read-out: GI
SNB-75 = test: Growth inhibition of human SNB75 cells at 10^-5 M incubated for 48 hrs by sulforhodamine B assay; conditions: SNB-75, 48 h, read-out: GI
HCT-15 = test: Growth inhibition of human HCT15 cells at 10^-5 M incubated for 48 hrs by sulforhodamine B assay; conditions: HCT-15, 48 h, read-out: GI
NCI-H522 = test: Growth inhibition of human NCI-H522 cells at 10^-5 M incubated for 48 hrs by sulforhodamine B assay; conditions: NCI-H522, 48 h, read-out: GI
COLO 205 = test: Growth inhibition of human COLO205 cells at 10^-5 M incubated for 48 hrs by sulforhodamine B assay; conditions: COLO 205, 48 h, read-out: GI
LOX IMVI = test: Growth inhibition of human LOXIMVI cells at 10^-5 M incubated for 48 hrs by sulforhodamine B assay; conditions: read-out: GI
M14 = test: Growth inhibition of human M14 cells at 10^-5 M incubated for 48 hrs by sulforhodamine B assay; conditions: M14, 48 h, read-out: GI
HCT-116 = test: Growth inhibition of human HCT116 cells at 10^-5 M incubated for 48 hrs by sulforhodamine B assay; conditions: HCT-116, 48 h, read-out: GI
NCI-H460 = test: Growth inhibition of human NCI-H460 cells at 10^-5 M incubated for 48 hrs by sulforhodamine B assay; conditions: NCI-H460, 48 h, read-out: GI
OVCAR-4 = test: Growth inhibition of human OVCAR4 cells at 10^-5 M incubated for 48 hrs by sulforhodamine B assay; conditions: OVCAR-4, 48 h, read-out: GI
SF-268 = test: Growth inhibition of human SF268 cells at 10^-5 M incubated for 48 hrs by sulforhodamine B assay; conditions: SF-268, 48 h, read-out: GI
SK-MEL-2 = test: Growth inhibition of human SK-MEL-2 cells at 10^-5 M incubated for 48 hrs by sulforhodamine B assay; conditions: SK-MEL-2, 48 h, read-out: GI
EKVX = test: Growth inhibition of human EKVX cells at 10^-5 M incubated for 48 hrs by sulforhodamine B assay; conditions: read-out: GI
NCI-H23 = test: Growth inhibition of human NCI-H23 cells at 10^-5 M incubated for 48 hrs by sulforhodamine B assay; conditions: NCI-H23, 48 h, read-out: GI
ACHN = test: Growth inhibition of human ACHN cells at 10^-5 M incubated for 48 hrs by sulforhodamine B assay; conditions: read-out: GI
SN12C = test: Growth inhibition of human SN12C cells at 10^-5 M incubated for 48 hrs by sulforhodamine B assay; conditions: read-out: GI
Malme-3M = test: Growth inhibition of human MALME-3M cells at 10^-5 M incubated for 48 hrs by sulforhodamine B assay; conditions: read-out: GI

| Structure (SMILES) | inhibition of growth at 10 µM (SF-539) | inhibition of growth at 10 µM (HOP-92) | inhibition of growth at 10 µM (OVCAR-8) | inhibition of growth at 10 µM (SK-OV-3) | inhibition of growth at 10 µM (SK-MEL-5) | inhibition of growth at 10 µM (A549) | inhibition of growth at 10 µM (CCRF-CEM) | inhibition of growth at 10 µM (KM12) | inhibition of growth at 10 µM (PC-3) | inhibition of growth at 10 µM (NCI/ADR-RES) | inhibition of growth at 10 µM (TK-10) | inhibition of growth at 10 µM (K562) | inhibition of growth at 10 µM (U-251) | inhibition of growth at 10 µM (NCI-H322M) | inhibition of growth at 10 µM (SF-295) | inhibition of growth at 10 µM (MDA-MB-435) | inhibition of growth at 10 µM (Hs-578T) | inhibition of growth at 10 µM (OVCAR-3) | inhibition of growth at 10 µM (IGROV-1) | inhibition of growth at 10 µM (A498) | also measured |
| --- | --- | --- | --- | --- | --- | --- | --- | --- | --- | --- | --- | --- | --- | --- | --- | --- | --- | --- | --- | --- | --- |
| O=[N+]([O-])c1cccc(C2NC(N3CCOCC3)=Nc3c2sc2ccc(Cl)cc32)c1 (stereo not drawn) | 6.94% | 10.1% | -3% | -6.18% | 4.38% | -1.35% | -3.36% | 4.2% | 23% | -3.21% | -10.7% | -3.76% | 1.11% | 6.39% | -4.89% | -6.59% | 1.47% | -0.17% | 25% | 1.88% | inhibition of growth at 10 µM (SW-620): -1.57%; inhibition of growth at 10 µM (T47D): 21.6%; inhibition of growth at 10 µM (SNB-19): 2.54%; inhibition of growth at 10 µM (SNB-75): 10.7%; inhibition of growth at 10 µM (HCT-15): -7.82%; inhibition of growth at 10 µM (NCI-H522): 3.46%; inhibition of growth at 10 µM (COLO 205): -6.02%; inhibition of growth at 10 µM (LOX IMVI): 3.74%; inhibition of growth at 10 µM (M14): -1.17%; inhibition of growth at 10 µM (HCT-116): 6.8%; inhibition of growth at 10 µM (NCI-H460): 4.82%; inhibition of growth at 10 µM (OVCAR-4): 1.77%; inhibition of growth at 10 µM (SF-268): 3.84%; inhibition of growth at 10 µM (SK-MEL-2): -1.1%; inhibition of growth at 10 µM (EKVX): 16.4%; inhibition of growth at 10 µM (NCI-H23): 13.4%; inhibition of growth at 10 µM (ACHN): 10.4%; inhibition of growth at 10 µM (SN12C): 3.85%; inhibition of growth at 10 µM (Malme-3M): 4.08% |
| O=C1/C(=C\c2cccc([N+](=O)[O-])c2)Sc2ccc(Cl)cc21 | -3.16% | 42.7% | 0.87% | 5.38% | 8.13% | -6.89% | -0.32% | -2.29% | -3.94% | 7.92% | -12.1% | 10.5% | 13.8% | 4.18% | -3.16% | 35.4% | -8.12% | -2.4% | 19.9% | 11.5% | inhibition of growth at 10 µM (SW-620): 2.49%; inhibition of growth at 10 µM (T47D): 13.1%; inhibition of growth at 10 µM (SNB-19): -6.12%; inhibition of growth at 10 µM (SNB-75): 12.3%; inhibition of growth at 10 µM (HCT-15): 6.13%; inhibition of growth at 10 µM (NCI-H522): 25.8%; inhibition of growth at 10 µM (COLO 205): -6.01%; inhibition of growth at 10 µM (LOX IMVI): 8.68%; inhibition of growth at 10 µM (M14): 4.61%; inhibition of growth at 10 µM (HCT-116): 45.9%; inhibition of growth at 10 µM (NCI-H460): -5.14%; inhibition of growth at 10 µM (OVCAR-4): 21.4%; inhibition of growth at 10 µM (SF-268): 7.22%; inhibition of growth at 10 µM (SK-MEL-2): 12.4%; inhibition of growth at 10 µM (EKVX): 4.33%; inhibition of growth at 10 µM (NCI-H23): 16.7%; inhibition of growth at 10 µM (ACHN): 27%; inhibition of growth at 10 µM (SN12C): -12.1%; inhibition of growth at 10 µM (Malme-3M): 22.4% |
